The values below come from US20230072683A1, “PYRIDO-PYRIMIDIN DERIVATIVES AND PHARMACEUTICAL COMPOSITION, FOR USE IN PREVENTING OR TREATING PI3 KINASE RELATED DISEASES, COMPRISING SAME AS ACTIVE INGREDIENT” (BORYUNG PHARMACEUTICAL CO., LTD, priority 2019, published 2023).

For assay [1], the target named is DNA-PK(h) (Homo sapiens, UniProt P78527). As to the kind of experiment: Evaluation of inhibitory activity against DNA-PK (HTRF kinase assay, GST-cMyc-p53 substrate). To be noted: for inhibition at 0.01 µM: compound concentration 0.01 μM, read-out: EXP_VALUE(% Inhibition) DNA-PK(h) 0.01 μM; for inhibition at 0.1 µM: compound concentration 0.1 μM, read-out: EXP_VALUE(% Inhibition) DNA-PK(h) 0.1 μM. It counts as biochemical. The procedure, abridged: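 p53 Ser15 phosphorylation by human DNA-PK was measured by time-resolved FRET ratio (665/620 nm ×10000) using Eu-labelled anti-phospho-Ser15 and d2 anti-GST antibodies. Substrate GST-cMyc-p53 at 50 μM; Mg/ATP-initiated, 30 min at room temperature, EDTA stop.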

For assay [2], the target named is PI3K-δ (PI3K(p1108/p857) (h)) (Homo sapiens, UniProt O00329). As to the kind of experiment: Evaluation of inhibitory activity against PI3K-δ (HTRF kinase assay). It counts as biochemical. The settings on record: for inhibition at 0.01 µM: compound concentration 0.01 μM, read-out: EXP_VALUE(% Inhibition) PI3K-δ 0.01 μM; for inhibition at 0.1 µM: compound concentration 0.1 μM, read-out: EXP_VALUE(% Inhibition) PI3K-δ 0.1 μM. The procedure, abridged: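 HTRF read-out (665/620 nm ratio ×10000) used Eu-labelled anti-GST, GST-tagged GRP1 PH domain and streptavidin-allophycocyanin after EDTA/PIP3 stop.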
Chain of PI3K-δ (PI3K(p1108/p857) (h)) (O00329 whole entry, the tested form may be a part): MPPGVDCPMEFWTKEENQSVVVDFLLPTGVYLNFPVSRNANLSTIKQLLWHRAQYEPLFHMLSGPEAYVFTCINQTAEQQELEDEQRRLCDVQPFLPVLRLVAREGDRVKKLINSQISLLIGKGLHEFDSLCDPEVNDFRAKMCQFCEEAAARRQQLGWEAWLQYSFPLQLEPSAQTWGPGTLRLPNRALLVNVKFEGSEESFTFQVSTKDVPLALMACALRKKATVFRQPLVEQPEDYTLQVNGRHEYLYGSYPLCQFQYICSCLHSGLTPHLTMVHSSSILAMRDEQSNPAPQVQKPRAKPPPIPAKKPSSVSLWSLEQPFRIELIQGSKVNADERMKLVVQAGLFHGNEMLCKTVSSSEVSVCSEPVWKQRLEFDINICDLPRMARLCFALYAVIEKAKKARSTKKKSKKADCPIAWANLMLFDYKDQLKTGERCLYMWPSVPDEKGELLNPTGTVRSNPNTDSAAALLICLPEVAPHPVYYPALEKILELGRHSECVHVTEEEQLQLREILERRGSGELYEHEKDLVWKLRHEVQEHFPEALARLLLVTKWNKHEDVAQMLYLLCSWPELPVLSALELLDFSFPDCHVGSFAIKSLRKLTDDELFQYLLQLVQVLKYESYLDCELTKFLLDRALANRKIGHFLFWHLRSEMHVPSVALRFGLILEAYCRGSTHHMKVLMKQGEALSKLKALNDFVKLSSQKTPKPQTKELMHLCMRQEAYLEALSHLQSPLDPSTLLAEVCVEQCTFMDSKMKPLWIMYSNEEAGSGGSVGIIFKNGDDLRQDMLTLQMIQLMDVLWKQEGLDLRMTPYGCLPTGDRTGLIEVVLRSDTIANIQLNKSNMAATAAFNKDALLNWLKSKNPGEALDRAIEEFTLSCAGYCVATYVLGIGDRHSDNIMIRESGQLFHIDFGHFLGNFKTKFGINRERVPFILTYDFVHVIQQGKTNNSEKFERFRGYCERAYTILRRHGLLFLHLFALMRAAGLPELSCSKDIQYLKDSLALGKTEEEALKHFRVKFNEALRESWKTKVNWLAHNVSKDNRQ
Chain of PI3K-δ (PI3K(p1108/p857) (h)) (P27986 whole entry partner, the tested form may be a part): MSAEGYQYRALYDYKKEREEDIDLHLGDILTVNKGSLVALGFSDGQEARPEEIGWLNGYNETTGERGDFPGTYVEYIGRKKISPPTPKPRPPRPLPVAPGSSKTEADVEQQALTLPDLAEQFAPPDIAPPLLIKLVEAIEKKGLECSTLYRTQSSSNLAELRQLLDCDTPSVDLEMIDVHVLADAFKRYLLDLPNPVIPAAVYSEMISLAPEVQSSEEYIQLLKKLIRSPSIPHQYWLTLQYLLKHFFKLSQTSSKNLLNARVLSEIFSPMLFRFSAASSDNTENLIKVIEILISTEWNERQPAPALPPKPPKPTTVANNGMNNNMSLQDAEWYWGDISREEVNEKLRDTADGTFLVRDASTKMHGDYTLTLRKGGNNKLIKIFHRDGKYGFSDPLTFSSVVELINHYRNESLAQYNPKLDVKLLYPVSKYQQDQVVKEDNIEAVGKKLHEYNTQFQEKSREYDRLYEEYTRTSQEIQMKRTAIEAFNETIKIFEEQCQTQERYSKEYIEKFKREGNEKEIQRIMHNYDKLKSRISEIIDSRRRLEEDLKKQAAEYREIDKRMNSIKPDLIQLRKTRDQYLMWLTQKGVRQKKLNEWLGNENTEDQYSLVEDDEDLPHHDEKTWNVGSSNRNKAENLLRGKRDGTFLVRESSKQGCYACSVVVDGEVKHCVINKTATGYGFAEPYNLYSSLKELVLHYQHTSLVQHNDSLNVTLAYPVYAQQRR
(Time-resolved FRET reads energy transfer from a long-lived donor to a nearby acceptor.)

Each structure is given as a SMILES string.

A word on the inhibition: it is the relative decrease from the control value, in per cent. Take `C[C@H](Nc1ncnc2[nH]ccc(=O)c12)c1c(Cl)c2cccc(-c3nc4ccccc4o3)c2c(=O)n1-c1ccccc1` [Example 317, (S)-4-((1-(8-(benzo[d]oxazol-2-yl)-4-chloro-1-oxo-2-phenyl-1,2-dihydroisoquinolin-3-yl)ethyl)amino)pyrido[2,3-d]pyrimidin-5(8H)-one]: in assay [1], the inhibition at 0.01 µM stood at 64% and the inhibition at 0.1 µM came to 96%. Moreover, in assay [2], the inhibition at 0.01 µM was 45% and the inhibition at 0.1 µM stood at 86%.

For the molecule `C[C@H](Nc1ncnc2[nH]ccc(=O)c12)c1cc2cccc(-c3nc4ccccc4o3)c2c(=O)n1-c1ccccc1` [Example 318, (S)-4-((1-(8-(benzo[d]oxazol-2-yl)-1-oxo-2-phenyl-1,2-dihydroisoquinolin-3-yl)ethyl)amino)pyrido[2,3-d]pyrimidin-5(8H)-one], the inhibition at 0.01 µM in assay [1] is 19%; in assay [2] it was 23%. Besides, the inhibition at 0.1 µM in assay [1] turned out to be 35%; in assay [2], 65%.

In the case of `C[C@H](Nc1ncnc2[nH]ccc(=O)c12)c1c(Cl)c2cccc(N(C)Cc3ccccc3)c2c(=O)n1-c1ccccc1` [Example 319, (S)-4-((1-(8-(benzyl(methyl)amino)-4-chloro-1-oxo-2-phenyl-1,2-dihydroisoquinolin-3-yl)ethyl)amino)pyrido[2,3-d]pyrimidin-5(8H)-one], in assay [1], the inhibition at 0.01 µM was determined as 7% and the inhibition at 0.1 µM came out at 25%. Besides, in assay [2], the inhibition at 0.01 µM was 18% and the inhibition at 0.1 µM turned out to be 62%.

As to `C[C@H](Nc1ncnc2[nH]ccc(=O)c12)c1c(Cl)c2cccc(-n3cccn3)c2c(=O)n1-c1ccccc1` [Example 320, (S)-4-((1-(4-chloro-1-oxo-2-phenyl-8-(1H-pyrazol-1-yl)-1,2-dihydroisoquinolin-3-yl)ethyl)amino)pyrido[2,3-d]pyrimidin-5(8H)-one], the results for the inhibition at 0.01 µM in assay [1] and in assay [2] were 12.3% and 35.9%, respectively. Further, the inhibition at 0.1 µM was determined as 57.3% in assay [1] and 83.3% in assay [2].

Take `C[C@H](Nc1ncnc2[nH]ccc(=O)c12)c1c(Cl)c2cccc(NCc3ccccc3)c2c(=O)n1-c1ccccc1` [Example 321, (S)-4-((1-(8-(benzylamino)-4-chloro-1-oxo-2-phenyl-1,2-dihydroisoquinolin-3-yl)ethyl)amino)pyrido[2,3-d]pyrimidin-5(8H)-one]: in assay [1], the inhibition at 0.01 µM was determined as 10% and the inhibition at 0.1 µM came to 34%. In assay [2], the inhibition at 0.01 µM stood at 22% and the inhibition at 0.1 µM was found to be 68%.

As to `C[C@H](Nc1ncnc2[nH]ccc(=O)c12)c1c(Cl)c2cccc(N(C)C3CCCCC3)c2c(=O)n1-c1ccccc1` [Example 322, (S)-4-((1-(4-chloro-8-(cyclohexyl(methyl)amino)-1-oxo-2-phenyl-1,2-dihydroisoquinolin-3-yl)ethyl)amino)pyrido[2,3-d]pyrimidin-5(8H)-one], in assay [1], the inhibition at 0.01 µM is -11% and the inhibition at 0.1 µM is 21%. In assay [2], the inhibition at 0.01 µM turned out to be 11% and the inhibition at 0.1 µM was 30%.

As to `C[C@H](Nc1ncnc2[nH]ccc(=O)c12)c1c(Cl)c2cccc(NC3CC3)c2c(=O)n1-c1ccccc1` [Example 323, (S)-4-((1-(4-chloro-8-(cyclopropylamino)-1-oxo-2-phenyl-1,2-dihydroisoquinolin-3-yl)ethyl)amino)pyrido[2,3-d]pyrimidin-5(8H)-one], in assay [1], the inhibition at 0.01 µM came to 8% and the inhibition at 0.1 µM amounted to 28%. For the same molecule, in assay [2], the inhibition at 0.01 µM came out at 22% and the inhibition at 0.1 µM is 65%.

On to `C[C@H](Nc1ncnc2[nH]ccc(=O)c12)c1c(Cl)c2cccc(NCc3cccnc3)c2c(=O)n1-c1ccccc1` [Example 324, (S)-4-((1-(4-chloro-1-oxo-2-phenyl-8-((pyridin-3-ylmethyl)amino)-1,2-dihydroisoquinolin-3-yl)ethyl)amino)pyrido[2,3-d]pyrimidin-5(8H)-one], for which, in assay [1], the inhibition at 0.01 µM worked out at 30% and the inhibition at 0.1 µM was 74%. Also, in assay [2], the inhibition at 0.01 µM was 19% and the inhibition at 0.1 µM is 58%.

In the case of `CCNc1cccc2c(Cl)c([C@H](C)Nc3ncnc4[nH]ccc(=O)c34)n(-c3ccccc3)c(=O)c12` [Example 325, (S)-4-((1-(4-chloro-8-(ethylamino)-1-oxo-2-phenyl-1,2-dihydroisoquinolin-3-yl)ethyl)amino)pyrido[2,3-d]pyrimidin-5(8H)-one], in assay [1], the inhibition at 0.01 µM stood at 12% and the inhibition at 0.1 µM is 59%. Moreover, in assay [2], the inhibition at 0.01 µM was determined as 22% and the inhibition at 0.1 µM stood at 65%.

Turning to `C[C@H](Nc1ncnc2[nH]ccc(=O)c12)c1c(Cl)c2cccc(N3CCN(c4ccccc4)CC3)c2c(=O)n1-c1ccccc1` [Example 326, (S)-4-((1-(4-chloro-1-oxo-2-phenyl-8-(4-phenylpiperazin-1-yl)-1,2-dihydroisoquinolin-3-yl)ethyl)amino)pyrido[2,3-d]pyrimidin-5(8H)-one], in assay [1], the inhibition at 0.01 µM was -4% and the inhibition at 0.1 µM worked out at 24%. In addition, in assay [2], the inhibition at 0.01 µM came out at 17% and the inhibition at 0.1 µM was found to be 51%.

As to `C[C@H](Nc1ncnc2[nH]ccc(=O)c12)c1c(Cl)c2cccc(N3C[C@]4(C)C[C@H]3CC(C)(C)C4)c2c(=O)n1-c1ccccc1` [Example 327, 4-(((S)-1-(4-chloro-1-oxo-2-phenyl-8-((1S,5R)-1,3,3-trimethyl-6-azabicyclo[3.2.1]octan-6-yl)-1,2-dihydroisoquinolin-3-yl)ethyl)amino)pyrido[2,3-d]pyrimidin-5(8H)-one], in assay [1], the inhibition at 0.01 µM is -13% and the inhibition at 0.1 µM was 8%. Besides, in assay [2], the inhibition at 0.01 µM stood at 4% and the inhibition at 0.1 µM stood at 25%.

As for `C[C@H](Nc1ncnc2[nH]ccc(=O)c12)c1c(Cl)c2cccc(N3CCC4CCCCC4C3)c2c(=O)n1-c1ccccc1` (stereo partly drawn) [Example 328, 4′-chloro-3′-((S)-1-((5-oxo-5,8-dihydropyrido[2,3-d]pyrimidin-4-yl)amino)ethyl)-2′-phenyl-3,4,4a,5,6,7,8,8a-octahydro-1H-[2,8′-biisoquinolin]-1′(2′H)-one], in assay [1], the inhibition at 0.01 µM came to 2% and the inhibition at 0.1 µM was found to be 12%. Besides, in assay [2], the inhibition at 0.01 µM came to 17% and the inhibition at 0.1 µM amounted to 42%.

For `Cc1ccc2c(c1)CN(c1cccc3c(Cl)c([C@H](C)Nc4ncnc5[nH]ccc(=O)c45)n(-c4ccccc4)c(=O)c13)CC2` [Example 329, (S)-4′-chloro-7-methyl-3′-(1-((5-oxo-5,8-dihydropyrido[2,3-d]pyrimidin-4-yl)amino)ethyl)-2′-phenyl-3,4-dihydro-1H-[2,8′-biisoquinolin]-1′(2′H)-one], the inhibition at 0.01 µM in assay [1] is 4%; in assay [2], 19%. In addition, the inhibition at 0.1 µM in assay [1] turned out to be 23%; in assay [2], 55%.

Regarding `C[C@H](Nc1ncnc2[nH]ccc(=O)c12)c1c(Cl)c2cccc(N3CCc4ccsc4C3)c2c(=O)n1-c1ccccc1` [Example 330, (S)-4-((1-(4-chloro-8-(4,7-dihydrothieno[2,3-c]pyridin-6(5H)-yl)-1-oxo-2-phenyl-1,2-dihydroisoquinolin-3-yl)ethyl)amino)pyrido[2,3-d]pyrimidin-5(8H)-one], in assay [1], the inhibition at 0.01 µM stood at 10% and the inhibition at 0.1 µM is 32%. In assay [2], the inhibition at 0.01 µM is 30% and the inhibition at 0.1 µM came out at 72%.

As for `C[C@H](Nc1ncnc2[nH]ccc(=O)c12)c1c(Cl)c2cccc(NC3CCOC3)c2c(=O)n1-c1ccccc1` (stereo partly drawn) [Example 331, 4-(((1S)-1-(4-chloro-1-oxo-2-phenyl-8-((tetrahydrofuran-3-yl)amino)-1,2-dihydroisoquinolin-3-yl)ethyl)amino)pyrido[2,3-d]pyrimidin-5(8H)-one], the inhibition at 0.01 µM in assay [1] was found to be 31%; in assay [2] it was 24%. In addition, the inhibition at 0.1 µM is 76% in assay [1] and 74% in assay [2].

`C[C@H](Nc1ncnc2[nH]ccc(=O)c12)c1c(Cl)c2cccc(NC3CCOCC3)c2c(=O)n1-c1ccccc1` [Example 332, (S)-4-((1-(4-chloro-1-oxo-2-phenyl-8-((tetrahydro-2H-pyran-4-yl)amino)-1,2-dihydroisoquinolin-3-yl)ethyl)amino)pyrido[2,3-d]pyrimidin-5(8H)-one]: in assay [1], the inhibition at 0.01 µM was -1% and the inhibition at 0.1 µM was 33%. Further, in assay [2], the inhibition at 0.01 µM was 30% and the inhibition at 0.1 µM was 75%.

On to `C[C@H](Nc1ncnc2[nH]ccc(=O)c12)c1c(Cl)c2cccc(N3CCN(c4ccccn4)CC3)c2c(=O)n1-c1ccccc1` [Example 333, (S)-4-((1-(4-chloro-1-oxo-2-phenyl-8-(4-(pyridin-2-yl)piperazin-1-yl)-1,2-dihydroisoquinolin-3-yl)ethyl)amino)pyrido[2,3-d]pyrimidin-5(8H)-one], for which, in assay [1], the inhibition at 0.01 µM is 17% and the inhibition at 0.1 µM is 62%. In assay [2], the inhibition at 0.01 µM worked out at 46% and the inhibition at 0.1 µM is 79%.

In the case of `C[C@H](Nc1ncnc2[nH]ccc(=O)c12)c1c(Cl)c2cccc(N(C)Cc3ccc4ccccc4c3)c2c(=O)n1-c1ccccc1` [Example 334, (S)-4-((1-(4-chloro-8-(methyl(naphthalen-2-ylmethyl)amino)-1-oxo-2-phenyl-1,2-dihydroisoquinolin-3-yl)ethyl)amino)pyrido[2,3-d]pyrimidin-5(8H)-one], in assay [1], the inhibition at 0.01 µM is 10% and the inhibition at 0.1 µM was determined as 27%. In assay [2], the inhibition at 0.01 µM amounted to 9% and the inhibition at 0.1 µM was determined as 49%.
